Results from patent US7445765B2, “Radiopharmaceutical for diagnostic imaging containing a technetium-99m nitride heterocomplex” (Nihon Medi-Physics Co., Ltd., priority 2000, dated 2008).

How the values were obtained:
[1] = Biodistribution of the 99mTc(N) heterocomplexes in rats (organ uptake, heart accumulation, heart/lung and heart/liver ratios); type: in vivo, female Sprague-Dawley rats
Summary of the method: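 Female Sprague-Dawley rats (200–250 g, n=3), ketamine/xylazine anaesthesia, got 300–370 kBq of each purified heterocomplex in pH 7.4 phosphate buffer (10% ethanol) via the jugular vein. They were killed at several post-injection times. Heart blood and washed, weighed organs were gamma-counted, taking whole blood as 6.5% of body weight.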

[2] = Measurement of Log k′ (partition ratio) by HPLC, PNP3 heterocomplexes; type: physicochemical; settings: HPLC C18, methanol/phosphate buffer (0.02M, pH 7.4), 1.0 mL/min; extrapolated to 0% organic solvent
Protocol: For the various ^99mTc(N) heterocomplexes synthesized using PNP3 as a bisphosphinoamine compound in Example 1, Log k′ values were determined at various compositions of a mobile phase for HPLC. As the mobile phase, mixtures of methanol and phosphate buffer (0.02M, pH=7.4) were used at a flow rate of 1.0 mL/min. For each sample, the retention time was measured at a minimum of three different methanol concentrations in the mobile phase. The Log k′ values at 0% organic solvent (Log k′0) were extrapolated from the linear part of the curve Log k′=a+bC, where C is the methanol concentration, and Log k′ is Log (tR-to)/to wherein tR is HPLC retension time (min). The column void time (t0) was regarded as being equal to the elution time of pertechnetic acid.

[3] = Stability: ligand exchange reaction with cysteine or glutathione; type: physicochemical; settings: phosphate buffer pH 7.4, 37° C., up to 2 hours, TLC
Protocol: The stability of the ^99mTc(N) heterocomplexes obtained using PNP3 as a bisphosphinoamine compound in Example 1 was confirmed by ligand exchange reaction with cysteine or glutathione.
250.0 μL of phosphate buffer solution (0.20 M, pH=7.4), 100 μL of water and 100 μL of each of the ^99mTc(N) heterocomplexes purified were mixed with 50 μL of each of cysteine solutions having different concentrations of 10 mM and 1.0 mM, and the resulting mixture was placed in a polypropylene test tube and incubated in a thermostat at 37° C. A blank solution was obtained by mixing an equal volume of water without addition of cysteine. Aliquots of the resulting solutions were withdrawn at 15 min, 30 min, 60 min and 2 hours after the start of the incubation, and analyzed by TLC. The same experiment as above was carried out except for using glutathione in place of cysteine. All the ^99mTc(N) heterocomplex samples were found stable against transchelation by cystein or glutathione.

In the case of `CCOCCN(CCOCC)C1=[S][99Tc+]2(#[N])([S]1)[P](CCCOC)(CCCOC)CCN(CCOC)CC[P]2(CCCOC)CCCOC` [[^99mTc(N) (PNP3) (DBODC)]^+], the “Biodistribution in rats: Adrenal glands” value ([1]; 0 min post injection) is reported as 2.68 ± 0.44 % ID/g, the “Biodistribution in rats: Blood” value ([1]; 0 min post injection) is reported as 0.55 ± 0.32 % ID/g and the “Biodistribution in rats: Brain” value ([1]; 0 min post injection) is reported as 0.23 ± 0.04 % ID/g. For the same compound, the “Biodistribution in rats: Heart” value ([1]; 0 min post injection) was 3.57 ± 0.14 % ID/g, the “Biodistribution in rats: Intestine” value ([1]; 0 min post injection) was 2.43 ± 0.49 % ID/g and the “Biodistribution in rats: Kidneys” value ([1]; 0 min post injection) was 10.40 ± 2.16 % ID/g. For the same compound, the “Biodistribution in rats: Liver” value ([1]; 0 min post injection) was 1.46 ± 0.05 % ID/g, the “Biodistribution in rats: Lungs” value ([1]; 0 min post injection) was 1.54 ± 0.03 % ID/g and the “Biodistribution in rats: Muscle” value ([1]; 0 min post injection) was 0.23 ± 0.04 % ID/g. For the same compound, the “Biodistribution in rats: Spleen” value ([1]; 0 min post injection) was 1.84 ± 0.49 % ID/g, the “Biodistribution in rats: Submaxillary glands” value ([1]; 0 min post injection) was 1.25 ± 0.47 % ID/g and the “Biodistribution in rats: Adrenal glands” value ([1]; 2 min post injection) was 2.87 ± 1.00 % ID/g. For the same compound, the “Biodistribution in rats: Blood” value ([1]; 2 min post injection) was 0.11 ± 0.01 % ID/g, the “Biodistribution in rats: Brain” value ([1]; 2 min post injection) was 0.03 ± 0.00 % ID/g and the “Biodistribution in rats: Heart” value ([1]; 2 min post injection) was 3.42 ± 0.19 % ID/g. The “Biodistribution in rats: Intestine” value ([1]; 2 min post injection) was 7.42 ± 1.03 % ID/g, the “Biodistribution in rats: Kidneys” value ([1]; 2 min post injection) was 11.57 ± 2.37 % ID/g and the “Biodistribution in rats: Liver” value ([1]; 2 min post injection) was 1.72 ± 0.26 % ID/g. The “Biodistribution in rats: Lungs” value ([1]; 2 min post injection) was 1.01 ± 0.49 % ID/g, the “Biodistribution in rats: Muscle” value ([1]; 2 min post injection) was 0.23 ± 0.01 % ID/g and the “Biodistribution in rats: Spleen” value ([1]; 2 min post injection) was 2.00 ± 0.07 % ID/g. The “Biodistribution in rats: Submaxillary glands” value ([1]; 2 min post injection) was 1.27 ± 0.05 % ID/g, the “Biodistribution in rats: Adrenal glands” value ([1]; 10 min post injection) was 2.30 ± 0.73 % ID/g and the “Biodistribution in rats: Blood” value ([1]; 10 min post injection) was 0.03 ± 0.00 % ID/g. For the same compound, the “Biodistribution in rats: Brain” value ([1]; 10 min post injection) was 0.02 ± 0.00 % ID/g, the “Biodistribution in rats: Heart” value ([1]; 10 min post injection) was 3.65 ± 0.56 % ID/g and the “Biodistribution in rats: Intestine” value ([1]; 10 min post injection) was 12.11 ± 2.92 % ID/g. The “Biodistribution in rats: Kidneys” value ([1]; 10 min post injection) was 6.74 ± 0.63 % ID/g, the “Biodistribution in rats: Liver” value ([1]; 10 min post injection) was 1.43 ± 0.47 % ID/g and the “Biodistribution in rats: Lungs” value ([1]; 10 min post injection) was 0.77 ± 0.10 % ID/g. For the same compound, the “Biodistribution in rats: Muscle” value ([1]; 10 min post injection) was 0.23 ± 0.07 % ID/g, the “Biodistribution in rats: Spleen” value ([1]; 10 min post injection) was 1.28 ± 0.12 % ID/g and the “Biodistribution in rats: Submaxillary glands” value ([1]; 10 min post injection) was 1.42 ± 0.24 % ID/g. The “Biodistribution in rats: Adrenal glands” value ([1]; 20 min post injection) was 2.69 ± 0.37 % ID/g, the “Biodistribution in rats: Blood” value ([1]; 20 min post injection) was 0.02 ± 0.01 % ID/g and the “Biodistribution in rats: Brain” value ([1]; 20 min post injection) was 0.02 ± 0.01 % ID/g. The “Biodistribution in rats: Heart” value ([1]; 20 min post injection) was 3.32 ± 0.18 % ID/g, the “Biodistribution in rats: Intestine” value ([1]; 20 min post injection) was 13.03 ± 3.19 % ID/g and the “Biodistribution in rats: Kidneys” value ([1]; 20 min post injection) was 6.12 ± 0.11 % ID/g. The “Biodistribution in rats: Liver” value ([1]; 20 min post injection) was 0.87 ± 0.52 % ID/g, the “Biodistribution in rats: Lungs” value ([1]; 20 min post injection) was 0.84 ± 0.06 % ID/g and the “Biodistribution in rats: Muscle” value ([1]; 20 min post injection) was 0.13 ± 0.02 % ID/g. The “Biodistribution in rats: Spleen” value ([1]; 20 min post injection) was 0.92 ± 0.10 % ID/g, the “Biodistribution in rats: Submaxillary glands” value ([1]; 20 min post injection) was 1.32 ± 0.21 % ID/g and the “Biodistribution in rats: Adrenal glands” value ([1]; 30 min post injection) was 2.94 ± 0.18 % ID/g. The “Biodistribution in rats: Blood” value ([1]; 30 min post injection) was 0.02 ± 0.00 % ID/g, the “Biodistribution in rats: Brain” value ([1]; 30 min post injection) was 0.02 ± 0.02 % ID/g and the “Biodistribution in rats: Heart” value ([1]; 30 min post injection) was 3.27 ± 0.36 % ID/g. The “Biodistribution in rats: Intestine” value ([1]; 30 min post injection) was 13.41 ± 4.62 % ID/g, the “Biodistribution in rats: Kidneys” value ([1]; 30 min post injection) was 5.67 ± 0.39 % ID/g and the “Biodistribution in rats: Liver” value ([1]; 30 min post injection) was 0.42 ± 0.01 % ID/g. For the same compound, the “Biodistribution in rats: Lungs” value ([1]; 30 min post injection) was 0.69 ± 0.12 % ID/g, the “Biodistribution in rats: Muscle” value ([1]; 30 min post injection) was 0.24 ± 0.08 % ID/g and the “Biodistribution in rats: Spleen” value ([1]; 30 min post injection) was 0.95 ± 0.02 % ID/g. For the same compound, the “Biodistribution in rats: Submaxillary glands” value ([1]; 30 min post injection) was 1.49 ± 0.22 % ID/g, the “Biodistribution in rats: Adrenal glands” value ([1]; 60 min post injection) was 2.17 ± 0.35 % ID/g and the “Biodistribution in rats: Blood” value ([1]; 60 min post injection) was 0.01 ± 0.00 % ID/g. The “Biodistribution in rats: Brain” value ([1]; 60 min post injection) was 0.01 ± 0.00 % ID/g, the “Biodistribution in rats: Heart” value ([1]; 60 min post injection) was 3.27 ± 0.62 % ID/g and the “Biodistribution in rats: Intestine” value ([1]; 60 min post injection) was 4.39 ± 2.86 % ID/g. The “Biodistribution in rats: Kidneys” value ([1]; 60 min post injection) was 4.24 ± 0.53 % ID/g, the “Biodistribution in rats: Liver” value ([1]; 60 min post injection) was 0.16 ± 0.05 % ID/g and the “Biodistribution in rats: Lungs” value ([1]; 60 min post injection) was 0.34 ± 0.11 % ID/g. The “Biodistribution in rats: Muscle” value ([1]; 60 min post injection) was 0.17 ± 0.01 % ID/g, the “Biodistribution in rats: Spleen” value ([1]; 60 min post injection) was 0.42 ± 0.11 % ID/g and the “Biodistribution in rats: Submaxillary glands” value ([1]; 60 min post injection) was 1.29 ± 0.28 % ID/g. For the same compound, the “Biodistribution in rats: Adrenal glands” value ([1]; 120 min post injection) was 2.53 ± 0.27 % ID/g, the “Biodistribution in rats: Blood” value ([1]; 120 min post injection) was 0.01 ± 0.00 % ID/g and the “Biodistribution in rats: Brain” value ([1]; 120 min post injection) was 0.01 ± 0.00 % ID/g. For the same compound, the “Biodistribution in rats: Heart” value ([1]; 120 min post injection) was 3.00 ± 0.42 % ID/g, the “Biodistribution in rats: Intestine” value ([1]; 120 min post injection) was 7.03 ± 2.61 % ID/g and the “Biodistribution in rats: Kidneys” value ([1]; 120 min post injection) was 3.48 ± 0.61 % ID/g. The “Biodistribution in rats: Liver” value ([1]; 120 min post injection) was 0.12 ± 0.03 % ID/g, the “Biodistribution in rats: Lungs” value ([1]; 120 min post injection) was 0.27 ± 0.05 % ID/g and the “Biodistribution in rats: Muscle” value ([1]; 120 min post injection) was 0.36 ± 0.15 % ID/g. For the same compound, the “Biodistribution in rats: Spleen” value ([1]; 120 min post injection) was 0.21 ± 0.03 % ID/g, the “Biodistribution in rats: Submaxillary glands” value ([1]; 120 min post injection) was 1.59 ± 0.19 % ID/g and the “Log k′ (partition ratio)” value [2] was 3.82. For the same compound, the Stability [3] was “Stable”.
